Assay results from ChEMBL document CHEMBL1821683, “Synthesis of rhodamine B-benzenesulfonamide conjugates and their inhibitory activity against human α- and bacterial/fungal β-carbonic anhydrases” (Bioorg Med Chem Lett, 2011).

What was measured:
Carbonic anhydrase 2 = Carbonic anhydrase 2 (Homo sapiens, UniProt P00918); assay: Inhibition of human carbonic anhydrase 2 preincubated for 15 mins at pH 7.5 by stopped flow CO2 hydration method
Carbonic anhydrase 12 = Carbonic anhydrase 12 (Homo sapiens, UniProt O43570); assay: Inhibition of human carbonic anhydrase 12 preincubated for 15 mins at pH 7.5 by stopped flow CO2 hydration method
Carbonic anhydrase 1 = Carbonic anhydrase 1 (Homo sapiens, UniProt P00915)
Carbonic anhydrase 7 = Carbonic anhydrase 7 (Homo sapiens, UniProt P43166)
Carbonic anhydrase = target: T1, Carbonic anhydrase (Candida albicans (strain SC5314 / ATCC MYA-2876) (Yeast), UniProt Q5AJ71)
T1 sequence (Q5AJ71 whole entry): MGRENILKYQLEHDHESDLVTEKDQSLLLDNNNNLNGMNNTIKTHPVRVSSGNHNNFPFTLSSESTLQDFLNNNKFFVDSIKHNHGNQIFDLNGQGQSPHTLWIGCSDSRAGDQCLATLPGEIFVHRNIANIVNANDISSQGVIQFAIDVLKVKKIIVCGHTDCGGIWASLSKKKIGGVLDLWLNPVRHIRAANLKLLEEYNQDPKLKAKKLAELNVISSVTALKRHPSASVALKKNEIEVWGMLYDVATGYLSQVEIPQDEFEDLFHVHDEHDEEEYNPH

Carbonic anhydrase 9 = Carbonic anhydrase 9 (Homo sapiens, UniProt Q16790)

Sequence of Carbonic anhydrase 12 (O43570 whole entry): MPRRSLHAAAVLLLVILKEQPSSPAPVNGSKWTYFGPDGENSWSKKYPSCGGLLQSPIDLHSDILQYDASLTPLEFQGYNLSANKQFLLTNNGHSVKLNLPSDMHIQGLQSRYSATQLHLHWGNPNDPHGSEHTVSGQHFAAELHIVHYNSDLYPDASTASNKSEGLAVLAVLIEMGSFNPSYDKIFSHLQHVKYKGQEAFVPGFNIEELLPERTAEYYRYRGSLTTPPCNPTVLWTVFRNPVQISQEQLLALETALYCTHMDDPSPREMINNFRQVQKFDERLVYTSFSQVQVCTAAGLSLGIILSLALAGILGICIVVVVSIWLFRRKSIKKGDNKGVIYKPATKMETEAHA
Sequence of Carbonic anhydrase 7 (P43166 whole entry): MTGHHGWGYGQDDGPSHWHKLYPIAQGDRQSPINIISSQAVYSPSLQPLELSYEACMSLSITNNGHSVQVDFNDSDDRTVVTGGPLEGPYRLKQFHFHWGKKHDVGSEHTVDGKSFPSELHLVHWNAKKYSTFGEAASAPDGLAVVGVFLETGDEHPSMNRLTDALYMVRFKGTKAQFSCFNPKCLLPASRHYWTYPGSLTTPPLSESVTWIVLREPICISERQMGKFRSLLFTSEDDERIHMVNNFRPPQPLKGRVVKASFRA
Sequence of Carbonic anhydrase 1 (P00915 whole entry): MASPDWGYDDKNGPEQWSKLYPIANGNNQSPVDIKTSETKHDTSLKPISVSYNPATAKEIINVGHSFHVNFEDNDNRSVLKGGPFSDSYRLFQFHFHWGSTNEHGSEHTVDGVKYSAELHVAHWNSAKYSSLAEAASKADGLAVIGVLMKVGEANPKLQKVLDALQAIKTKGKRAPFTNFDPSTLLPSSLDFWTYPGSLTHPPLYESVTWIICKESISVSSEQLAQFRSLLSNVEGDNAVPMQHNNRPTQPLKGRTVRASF

Structure (SMILES) | Ki (Carbonic anhydrase 2) [nM] | Ki (Carbonic anhydrase 12) [nM] | Ki (Carbonic anhydrase 1) [nM] | Ki (Carbonic anhydrase 7) [nM] | Ki (Carbonic anhydrase) [µM] | Ki (Carbonic anhydrase 9) [nM]
CCN(CC)c1ccc2c(c1)Oc1cc(N(CC)CC)ccc1C21c2ccccc2C(=O)N1c1ccc(S(N)(=O)=O)cc1 | 279 | 9.1 | 512 | 60.2 | 4.99 | –
CCN(CC)c1ccc2c(c1)Oc1cc(N(CC)CC)ccc1C21c2ccccc2C(=O)N1c1cccc(S(N)(=O)=O)c1 | 21.5 | 10.5 | 311 | 12.1 | 4.1 | 24
CCN(CC)c1ccc2c(c1)Oc1cc(N(CC)CC)ccc1C21c2ccccc2C(=O)N1Cc1ccc(S(N)(=O)=O)cc1 | 980 | 8.6 | 714 | 34.9 | 5.32 | 10.2
CCN(CC)c1ccc2c(c1)Oc1cc(N(CC)CC)ccc1C21c2ccccc2C(=O)N1CCc1ccc(S(N)(=O)=O)cc1 | 955 | 25.3 | 692 | 91.7 | 4.73 | 19.4
